Experiment [1] has as its system mature osteoblasts. Briefly: In vitro bone formation assay (calcium deposition into bone nodules). Format: cell-based, mouse. As to conditions: LA number = ng/ml lanthanum; for Effect on bone formation activity of mature osteoblasts, in words: lanthanum (III) / lanthanum (III) ion = all concentrations tested, 100 to 15,000 ng/ml, 17-estradiol 10^−10M; for Calcium deposition, Mean ± SD / Calcium deposition, replicates 1-6 / Calcium deposition, replicates 1-4 / Calcium deposition, replicates 1-8: calcium released from bone nodules after HCl extraction; for Calcium deposition, Mean ± SD / Calcium deposition, replicates 1-6 / Calcium deposition, replicates 1-4 / Calcium deposition, replicates 1-8 / Combined results on bone formation activity of mature osteoblasts (calcium released), Mean ± SD: Control = Baseline+10^−10M 17β-estradiol; for Combined results on bone formation activity of mature osteoblasts (calcium released), Mean ± SD: tables 13 and 14 combined, number 14. On the procedure: The activity of mature osteoblasts can be determined by quantifying their ability to form mineralized bone matrix. This is done by demineralizing the formed bone matrix, and determining the amount of calcium released. Thus, this culture system fulfills requirements of an in vitro model useful for studying the bone formation activity of mature osteoblasts. […] At the end of the culture, the amount of calcium deposited during the culture period was determined, and the amount of bone formation (calcium deposition) calculated. […] Extracts of 50 μl were complexed with 1 ml determined o-cresol-phthalein-complexon. The colorimetric reaction was determined at 570 nm in a spectrophotometer. Absolute calcium concentrations were determined by comparison with a calibrated standard provided by the vendor. In this study, the effect of lanthanum carbonate on bone formation was tested. […] The amount of bone formation was determined by measuring the amount of calcium deposited into bone nodules formed by mature osteoblasts. The results are shown as the amount of calcium released (mmol/L) from the bone nodules after HCl extraction. The baseline values are too low to show the results using relative amounts as was done in the other assays.

The test system of experiment [2] is osteoclasts cultured on bone slices. Briefly: In vitro bone resorption assay (osteoclasts on bovine bone slices, CrossLaps). As to conditions: for Relative medium CrossLaps amounts per osteoclast, replicates 1-6 / Relative medium CrossLaps amounts per osteoclast, Mean ± SD: first bone resorption assay; for Relative medium CrossLaps amounts per osteoclast, replicates 1-6 / Relative medium CrossLaps amounts per osteoclast, Mean ± SD / Relative medium CrossLaps amounts per osteoclasts, Mean ± SD / Relative medium CrossLaps amounts per osteoclasts, replicates 1-6: relative to mean of baseline group, 72 hours; for Relative medium CrossLaps amounts per osteoclast, replicates 1-6: LA number = ng/ml lanthanum in culture medium; for Relative medium CrossLaps amounts per osteoclast, replicates 1-6 / Relative medium CrossLaps amounts per osteoclast, Mean ± SD / Relative medium CrossLaps amounts per osteoclasts, Mean ± SD / Relative medium CrossLaps amounts per osteoclasts, replicates 1-6 / Combined results on bone resorption (relative medium CrossLaps per osteoclast), Mean ± SD: Control = Baseline+10 nM bafilomycin Al; for Relative medium CrossLaps amounts per osteoclast, Mean ± SD / Relative medium CrossLaps amounts per osteoclasts, Mean ± SD / Relative medium CrossLaps amounts per osteoclasts, replicates 1-6 / Combined results on bone resorption (relative medium CrossLaps per osteoclast), Mean ± SD / Effect on bone resorption / bone resorbing activity of mature osteoclasts, in words: LA number = ng/ml lanthanum; for Relative medium CrossLaps amounts per osteoclasts, Mean ± SD / Relative medium CrossLaps amounts per osteoclasts, replicates 1-6: second bone resorption assay; for Combined results on bone resorption (relative medium CrossLaps per osteoclast), Mean ± SD: tables 1 and 2 combined, number 12; for Effect on bone resorption / bone resorbing activity of mature osteoclasts, in words: lanthanum (III) ion = any of the concentrations tested (100-15000 ng/ml), bafilomycin Al 10 nM. Format: cell-based, rat. An excerpt:
The method of osteoclast culture on bone slices was originally described by Boyde et al. (1984) and by Chambers et al. (1984). For cell culture, we used a method slightly modified from the original methods (Lakkakorpi et al. 1989, Lakkakorpi and Väänänen, 1991). The rate of bone resorption in the cultures was originally determined by counting the number of resorption pits on each bone or dentine slice using a microscope with phase contrast objectives (Sundquist et al. 1990). Later, the pits were visualized using Wheat Germ Agglutinin lectin that specifically binds to the resorbed area in bone (Selander et al. 1994), making it possible to quantify the total resorbed area using a microscope and computer-assisted image analysis system (Laitala and Väänänen 1994, Hentunen et al. 1995). We used a commercially available method (CrossLaps for cultures, Osteometer Biotech, Herlev, Denmark) to detect the amount of collagen cross-links released into the culture medium as an index of the bone resorption rate (Bagger et al., 1999).
The study protocol uses a method where osteoclasts are cultured on bone slices and allowed to resorb bone. The system is ideal for determining the effect of drug candidates on the bone resorbing activity of osteoclasts. Drug candidates are added into the cell cultures at the beginning of the culture period, and the osteoclasts allowed to resorb bone for 3 days. The amount of bone resorbed during the culture period is determined and compared to the amount of bone resorbed in control cultures (those cultured in the absence of drug candidates).
Transverse 0.1 mm thick slices of cortical bone were cut from the diaphysis of fresh bovine femurs (Atria Slaughterhouse, Oulu, Finland) using a low-speed diamond saw, cleaned by ultrasonication in multiple changes of sterile distilled water, and stored at 4° C. before use. Long bones were removed from 1-day-old rat pups killed by decapitation. […] The resulting suspension of dispersed cells and bone fragments was agitated using a plastic pipette. Larger fragments were allowed to sediment for a few seconds and the supernatant was seeded onto the bone slices pre-wetted in the medium. After a settling period of 30 minutes at 37° C., the bone slices were washed by dipping in fresh medium, and then transferred to wells in 24-well culture dishes containing osteoclast culture medium. The bone slices were incubated in a humidified atmosphere of 95% air and 5% carbon dioxide at 37° C. for 72 hours.
After the culture period, the amount of bone resorption was determined by measuring the amount of collagen cross-links released into the culture medium using a commercial kit (CrossLaps for cultures, Osteometer Biotech) according to the manufacturer s instructions. The number of osteoclasts in each culture was determined by microscopic counting of the amount of TRAP-positive multinuclear cells, and the results are given as the number of collagen cross-links released per one osteoclast.
In the bone resorption assay, the amount of medium CrossLaps (nM) released into the culture medium was determined and the number of osteoclasts in the corresponding cultures calculated. The medium CrossLaps amounts were divided with the osteoclast numbers in the corresponding cultures, and the results are given on Table 1 as relative medium CrossLaps amounts per osteoclasts. The relative values were obtained by dividing each individual value with the mean value of the baseline group.

Setting [3] is: preliminary bone formation assay.

Several values for one entry are separate records, joined by “and”; a condition that tells them apart may be missing. Identical values can stand only once.

Consider `O.O.O.O.O=C([O-])[O-].O=C([O-])[O-].O=C([O-])[O-].[La+3].[La+3]` [LA 5000, lanthanum carbonate tetrahydrate], for which, in experiment [1], the “Effect on bone formation activity of mature osteoblasts, in words” value (from here on “Effect on bone formation activity”) was “best responses” and the “Combined results on bone formation activity of mature osteoblasts (calcium released), Mean ± SD” value (from here on “Combined results … (calcium released), Mean ± SD”) worked out at 1.47 ± 0.16 mmol/L. For the same molecule, in experiment [1] (first bone formation assay), the “Calcium deposition, Mean ± SD” value turned out to be 1.46 ± 0.10 mmol/L; the “Calcium deposition, replicates 1-6” value was 1.31 mmol/L and 1.55 mmol/L and 1.56 mmol/L and 1.52 mmol/L and 1.40 mmol/L and 1.39 mmol/L. Further, in experiment [1] (setting [3]), the “Calcium deposition, Mean ± SD” value was determined as 1.06 ± 0.66 mmol/L; the “Calcium deposition, replicates 1-4” value is 0.59 mmol/L and 1.64 mmol/L and 0.39 mmol/L and 1.62 mmol/L. Moreover, in experiment [1] (second bone formation assay), the “Calcium deposition, Mean ± SD” value is listed as 1.47 ± 0.20(* mmol/L; the “Calcium deposition, replicates 1-8” value was 1.08 mmol/L and 1.63 mmol/L and 1.30 mmol/L. In experiment [2], the “Relative medium CrossLaps amounts per osteoclast, replicates 1-6” value is 1.39 and 0.78 and 2.70 and 1.18 and 0.76 and 1.21; the “Relative medium CrossLaps amounts per osteoclast, Mean ± SD” value is given as 1.34 ± 0.71; the “Relative medium CrossLaps amounts per osteoclasts, Mean ± SD” value is 1.20 ± 0.59; the “Relative medium CrossLaps amounts per osteoclasts, replicates 1-6” value was 0.48 and 1.18 and 0.77 and 0.98 and 1.99 and 1.81. Further, the “Combined results on bone resorption (relative medium CrossLaps per osteoclast), Mean ± SD” value in experiment [2] was 1.27 ± 0.63.

For `O.O.O.O.O=C([O-])[O-].O=C([O-])[O-].O=C([O-])[O-].[La+3].[La+3]` [LA 500, lanthanum carbonate tetrahydrate], in experiment [1], the “Effect on bone formation activity” value was “stimulate bone formation” and the “Combined results … (calcium released), Mean ± SD” value is 0.68 ± 0.56 mmol/L. For the same molecule, in experiment [1] (first bone formation assay), the “Calcium deposition, Mean ± SD” value was 0.77 ± 0.54 mmol/L; the “Calcium deposition, replicates 1-6” value was 0.44 mmol/L and 0.15 mmol/L and 1.32 mmol/L and 0.27 mmol/L and 1.31 mmol/L and 1.10 mmol/L. In experiment [1] (setting [3]), the “Calcium deposition, Mean ± SD” value worked out at 0.02 ± 0.05 mmol/L; the “Calcium deposition, replicates 1-4” value was 0 mmol/L (3×) and 0.09 mmol/L. Moreover, in experiment [1] (second bone formation assay), the “Calcium deposition, Mean ± SD” value was 0.62 ± 0.61 mmol/L; the “Calcium deposition, replicates 1-8” value was 0 mmol/L and 0.02 mmol/L and 0.46 mmol/L and 1.17 mmol/L. In experiment [2], the “Effect on bone resorption / bone resorbing activity of mature osteoclasts, in words” value is recorded as “dose-dependent inhibition of bone resorption”; the “Relative medium CrossLaps amounts per osteoclast, replicates 1-6” value is 1.04 and 0.58 and 1.38 and 0.75 and 0.88 and 0.63; the “Relative medium CrossLaps amounts per osteoclast, Mean ± SD” value is listed as 0.88 ± 0.30; the “Relative medium CrossLaps amounts per osteoclasts, Mean ± SD” value came to 0.88 ± 0.65. In addition, in experiment [2], the “Relative medium CrossLaps amounts per osteoclasts, replicates 1-6” value was 0.50 (2×) and 2.14 and 1.03 and 0.47 and 0.63; the “Combined results on bone resorption (relative medium CrossLaps per osteoclast), Mean ± SD” value worked out at 0.88 ± 0.48.

In the case of `O.O.O.O.O=C([O-])[O-].O=C([O-])[O-].O=C([O-])[O-].[La+3].[La+3]` [LA 15000, lanthanum carbonate tetrahydrate], in experiment [1], the “Effect on bone formation activity” value is on record as “best responses” and the “Combined results … (calcium released), Mean ± SD” value stood at 1.35 ± 0.21 mmol/L. Also, in experiment [1] (first bone formation assay), the “Calcium deposition, Mean ± SD” value was 1.29 ± 0.21 mmol/L; the “Calcium deposition, replicates 1-6” value was 1.46 mmol/L and 1.42 mmol/L and 1.56 mmol/L and 1.11 mmol/L (2×) and 1.08 mmol/L. Besides, in experiment [1] (setting [3]), the “Calcium deposition, Mean ± SD” value amounted to 0.89 ± 0.66 mmol/L; the “Calcium deposition, replicates 1-4” value is 1.48 mmol/L and 0.16 mmol/L and 0.50 mmol/L and 1.41 mmol/L. Moreover, in experiment [1] (second bone formation assay), the “Calcium deposition, Mean ± SD” value is 1.40 ± 0.21(* mmol/L; the “Calcium deposition, replicates 1-8” value is 1.62 mmol/L and 1.18 mmol/L and 1.21 mmol/L. Also, in experiment [2], the “Effect on bone resorption / bone resorbing activity of mature osteoclasts, in words” value was “slight decrease”; the “Relative medium CrossLaps amounts per osteoclast, replicates 1-6” value was 0.57 (2×) and 0.58 and 0.96 and 2.53 and 1.11; the “Relative medium CrossLaps amounts per osteoclast, Mean ± SD” value was 1.05 ± 0.76; the “Relative medium CrossLaps amounts per osteoclasts, Mean ± SD” value came out at 0.63 ± 0.29. In experiment [2], the “Relative medium CrossLaps amounts per osteoclasts, replicates 1-6” value was 0.29 and 1.08 and 0.62 and 0.87 and 0.47 and 0.45; the “Combined results on bone resorption (relative medium CrossLaps per osteoclast), Mean ± SD” value turned out to be 0.84 ± 0.59.

These data come from US7078059B2, “Treatment of bone diseases” (Shire Holdings AG, priority 2000, dated 2006).
